{
  "source": "ChEMBL document CHEMBL5370554",
  "about": "“Discovery of a first-in-class Aurora A covalent inhibitor for the treatment of triple negative breast cancer” (Eur J Med Chem, 2023)",
  "key": {"[1]": {"biological_target": "Aurora kinase B (Homo sapiens) (UniProt Q96GD4)", "sequence (Q96GD4 whole entry)": "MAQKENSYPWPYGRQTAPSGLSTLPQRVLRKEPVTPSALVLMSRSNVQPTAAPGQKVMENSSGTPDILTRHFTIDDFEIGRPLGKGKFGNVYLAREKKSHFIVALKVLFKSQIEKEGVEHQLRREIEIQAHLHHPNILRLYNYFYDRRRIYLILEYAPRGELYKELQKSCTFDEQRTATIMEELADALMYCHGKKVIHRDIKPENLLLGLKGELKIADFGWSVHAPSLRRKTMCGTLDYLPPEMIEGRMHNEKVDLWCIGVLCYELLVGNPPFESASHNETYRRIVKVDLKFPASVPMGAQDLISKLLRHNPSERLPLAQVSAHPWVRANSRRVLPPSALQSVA", "assay": "Inhibition of Aurora B in human MDA-MB-231 cells assessed as effect on Aurora B phosphorylation at 0.2 to 0.6 uM incubated for 1 hrs by Western blot analysis", "assay_type": "cell-based", "settings": "dose 0.2-0.6 µM"}, "[2]": {"assay": "Toxicity in BALB/c nude mouse xenografted with human MDA-MB-231 cells assessed as parenchymal injury in lung at 15 mg/kg,ip every 2days for 20 days by Hematoxylin and Eosin staining based microscopy", "assay_type": "organism-based", "settings": "in vivo, 480 h, time 20 day"}, "Aurora kinase A [3]": {"biological_target": "T1, Aurora kinase A (Homo sapiens, UniProt O14965)", "T1 sequence (O14965 whole entry)": "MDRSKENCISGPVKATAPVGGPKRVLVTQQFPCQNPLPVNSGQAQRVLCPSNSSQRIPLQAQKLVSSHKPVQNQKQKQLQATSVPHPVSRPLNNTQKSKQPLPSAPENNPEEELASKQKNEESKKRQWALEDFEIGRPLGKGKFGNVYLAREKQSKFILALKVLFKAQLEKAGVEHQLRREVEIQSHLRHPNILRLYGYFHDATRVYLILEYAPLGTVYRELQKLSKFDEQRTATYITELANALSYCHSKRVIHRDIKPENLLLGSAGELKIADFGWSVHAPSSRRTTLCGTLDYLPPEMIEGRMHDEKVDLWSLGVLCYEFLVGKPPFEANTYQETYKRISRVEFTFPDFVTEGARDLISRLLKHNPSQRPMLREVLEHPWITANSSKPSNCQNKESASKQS", "assay": "Inhibition of recombinant human Aurora A (1 to 403 residues) expressed in Escherichia coli using STK-substrate 2-biotin as substrate incubated for 15 mins in presence of 0.48 uM ATP by HTRF assay"}, "[4]": {"assay": "Cytotoxicity against human L02 cells assessed as inhibition of cell proliferation incubated for 48 hrs by CCK-8 assay", "assay_type": "toxicity, cell-based"}, "[5]": {"biological_target": "T2, Aurora kinase A (Homo sapiens) (UniProt O14965)", "T2 sequence (whole entry)": "T1 sequence (O14965 whole entry)", "assay": "Inhibition of Aurora A in human MDA-MB-231 cells assessed as decrease in Aurora A phosphorylation at Thr288 residue at 0.2 to 0.6 uM incubated for 1 hrs by Western blot analysis", "assay_type": "cell-based", "settings": "dose 0.2-0.6 µM"}, "MDA-MB-231 [6]": {"tested_on": "MDA-MB-231", "assay": "Inhibition of […] in human MDA-MB-231 cells at 1 uM incubated for 14 days by crystal violet staining based colony formation assay (Rvb= 115+/-4%)", "assay_type": "functional", "settings": "MDA-MB-231, 336 h, time 14 day"}, "[7]": {"biological_target": "T2, Aurora kinase A (Homo sapiens)", "assay": "Covalent binding affinity to recombinant human Aurora A (1 to 403 residues) expressed in Escherichia coli assessed as covalent adduct formation at Cys290 residue at 100 uM incubated for 4 hrs by UPLC-MS/MS analysis"}, "[8]": {"assay": "Toxicity in BALB/c nude mouse xenografted with human MDA-MB-231 cells assessed as parenchymal injury in spleen at 15 mg/kg,ip every 2days for 20 days by Hematoxylin and Eosin staining based microscopy", "assay_type": "organism-based", "settings": "in vivo, 480 h, time 20 day"}, "[9]": {"assay": "Metabolic stability in Sprague-Dawley rat liver microsomes assessed as half life at 1.75 uM incubated upto 60 mins in presence of NADPH by LC-MS analysis", "assay_type": "ADME, Microsome"}, "MDA-MB-231 [10]": {"tested_on": "MDA-MB-231", "assay": "Induction of apoptosis in human MDA-MB-231 cells assessed as live cells at 2.5 uM incubated for 24 hrs by Annexin V-FITC staining based flow cytometry (Rvb= 88.1%)", "assay_type": "functional"}, "Aurora kinase A [11]": {"biological_target": "T1, Aurora kinase A", "assay": "Inhibition of recombinant human Aurora A (1 to 403 residues) expressed in Escherichia coli using STK-substrate 2-biotin as substrate incubated for 60 mins in presence of 7.2uM ATP by HTRF assay"}, "Aurora kinase A [12]": {"biological_target": "T1, Aurora kinase A", "assay": "Inhibition of recombinant human Aurora A (1 to 403 residues) expressed in Escherichia coli using STK-substrate 2-biotin as substrate incubated for 60 mins in presence of 0.48 uM ATP by HTRF assay"}, "[13]": {"biological_target": "T2, Aurora kinase A (Homo sapiens)", "assay": "Irreversible inhibition of recombinant human Aurora A (1 to 403 residues) expressed in Escherichia coli assessed as ratio of Kinact/Ki using STK-substrate 2-biotin as substrate at 0.625 to 40 uM incubated upto 7000 sec in presence of ATP by HTRF assay", "settings": "dose 0.625-40 µM"}, "MDA-MB-231 [14]": {"tested_on": "MDA-MB-231", "assay": "Induction of apoptosis in human MDA-MB-231 cells assessed as live cells at 1.25 uM incubated for 24 hrs by Annexin V-FITC staining based flow cytometry (Rvb= 88.1%)", "assay_type": "functional"}, "A549": {"tested_on": "A549", "assay": "Antiproliferative activity against human A549 cells assessed as inhibition of cell proliferation incubated for 48 hrs by CCK-8 assay", "assay_type": "functional, cell-based", "settings": "A549, 48 h"}, "MDA-MB-231 [15]": {"tested_on": "MDA-MB-231", "assay": "Antiproliferative activity against human MDA-MB-231 cells assessed as inhibition of cell proliferation incubated for 48 hrs by CCK-8 assay", "assay_type": "functional, cell-based", "settings": "MDA-MB-231, 48 h"}, "MDA-MB-231 [16]": {"tested_on": "MDA-MB-231", "assay": "Induction of apoptosis in human MDA-MB-231 cells assessed as live cells at 5 uM incubated for 24 hrs by Annexin V-FITC staining based flow cytometry (Rvb= 88.1%)", "assay_type": "functional"}, "[17]": {"assay": "Metabolic stability in Sprague-Dawley rat liver microsomes assessed as intrinsic clearance at 1.75 uM incubated upto 60 mins in presence of NADPH by LC-MS analysis", "assay_type": "ADME, Microsome", "settings": "read-out: CLH"}, "[18]": {"assay": "Toxicity in BALB/c nude mouse xenografted with human MDA-MB-231 cells assessed as inflammatory cell infiltration in spleen at 15 mg/kg,ip every 2days for 20 days by Hematoxylin and Eosin staining based microscopy", "assay_type": "organism-based", "settings": "in vivo, 480 h, time 20 day"}, "Aurora kinase A [19]": {"biological_target": "T1, Aurora kinase A", "assay": "Inhibition of recombinant human Aurora A (1 to 403 residues) expressed in Escherichia coli using STK-substrate 2-biotin as substrate incubated for 40 mins in presence of 24 uM ATP by HTRF assay"}, "MDA-MB-231 [20]": {"tested_on": "MDA-MB-231", "assay": "Inhibition of cell migration in human MDA-MB-231 cells at 1.25 uM incubated for 18 hrs by Scratch assay (Rvb= 37.2%)", "assay_type": "functional"}, "[21]": {"assay": "Toxicity in BALB/c nude mouse xenografted with human MDA-MB-231 cells assessed as inflammatory cell infiltration in kidney at 15 mg/kg,ip every 2days for 20 days by Hematoxylin and Eosin staining based microscopy", "assay_type": "organism-based", "settings": "in vivo, 480 h, time 20 day"}, "Mus musculus": {"tested_on": "Mus musculus", "assay": "In vivo inhibition of Aurora signalling pathway in human MDA-MB-231 cells xenografted in BALB/c nude mouse assessed as decrease in Aurora B phosphorylation at Thr232 residue in tumor at 15 mg/kg,ip every 2days for 20 days by Western blot analysis", "assay_type": "functional, organism-based", "settings": "time 20.0 day"}, "[22]": {"biological_target": "T2, Aurora kinase A (Homo sapiens)", "assay": "Covalent binding affinity to recombinant human Aurora A (1 to 403 residues) expressed in Escherichia coli assessed as dissociation rate constant by surface plasmon resonance analysis"}, "[23]": {"biological_target": "T2, Aurora kinase A (Homo sapiens)", "assay": "Covalent irreversible inhibition of recombinant human Aurora A (1 to 403 residues) expressed in Escherichia coli using STK-substrate 2-biotin as substrate at 0.625 to 40 uM incubated upto 120 mins in presence of ATP by HTRF assay", "settings": "dose 0.625-40 µM, TDE = time-dependent effect"}, "MDA-MB-231 [24]": {"tested_on": "MDA-MB-231", "assay": "Induction of cell cycle arrest in human MDA-MB-231 cells assessed as accumulation at G2/M phase at 5 uM incubated for 24 hrs by PI staining based flow cytometry (Rvb=14.0%)", "assay_type": "functional"}, "[25]": {"biological_target": "Aurora kinase B (Homo sapiens) (UniProt Q96GD4)", "assay": "Binding affinity to Aurora B in human MDA-MB-231 cells assessed as thermal stability at 46 to 62 degreeC at 1 uM incubated for 1 hrs by […] analysis", "assay_type": "cell-based"}},
  "note": "The source made the active and inactive calls. The calls are words filed in the database; no cut-off is given here.",
  "data": [
    {"smiles": "C=CC(=O)Nc1ccc(-c2nc(Nc3cc(C)[nH]n3)c3ccc(N4CCN(C)CC4)cc3n2)cc1", "values": [
      {"measurement": "inhibition", "setting": "[1]", "result": "inactive"},
      {"measurement": "Activity", "setting": "[2]", "result": "Non-Toxic"},
      {"measurement": "IC50", "setting": "Aurora kinase A [3]", "result": 1.49, "unit": "nM"},
      {"measurement": "IC50 at 48 h", "setting": "[4]", "result": 23400, "unit": "nM"},
      {"measurement": "inhibition", "setting": "[5]", "result": "Dose-Dependent Effect"},
      {"measurement": "inhibition at 1 µM", "setting": "MDA-MB-231 [6]", "result": 13, "unit": "%"},
      {"measurement": "Activity", "setting": "[7]", "result": "Active"},
      {"measurement": "Activity", "setting": "[8]", "result": "Non-Toxic"},
      {"measurement": "half-life at 1.75 µM", "setting": "[9]", "result": 24.3, "unit": "min"},
      {"measurement": "Activity", "setting": "MDA-MB-231 [10]", "result": 60.1, "unit": "%"},
      {"measurement": "IC50", "setting": "Aurora kinase A [11]", "result": 8.13, "unit": "nM"},
      {"measurement": "IC50", "setting": "Aurora kinase A [12]", "result": 3.41, "unit": "nM"},
      {"measurement": "Ratio", "setting": "[13]", "result": "6.02 10^3/M/s"},
      {"measurement": "Activity", "setting": "MDA-MB-231 [14]", "result": 69.5, "unit": "%"},
      {"measurement": "IC50", "setting": "A549", "result": 3080, "unit": "nM"},
      {"measurement": "IC50", "setting": "MDA-MB-231 [15]", "result": 1540, "unit": "nM"},
      {"measurement": "Activity", "setting": "MDA-MB-231 [16]", "result": 8.59, "unit": "%"},
      {"measurement": "microsomal CLint at 1.75 µM", "setting": "[17]", "result": 71.3, "unit": "µL/min/mg"},
      {"measurement": "Activity", "setting": "[18]", "result": "Non-Toxic"},
      {"measurement": "IC50", "setting": "Aurora kinase A [19]", "result": 8.34, "unit": "nM"},
      {"measurement": "inhibition at 1.25 µM", "setting": "MDA-MB-231 [20]", "result": 3.6, "unit": "%"},
      {"measurement": "Activity", "setting": "[21]", "result": "Non-Toxic"},
      {"measurement": "inhibition", "setting": "Mus musculus", "result": "inactive"},
      {"measurement": "Activity", "setting": "[22]", "result": "Active"},
      {"measurement": "inhibition", "setting": "[23]", "result": "Tde"},
      {"measurement": "Activity", "setting": "MDA-MB-231 [24]", "result": 50.8, "unit": "%"},
      {"measurement": "Activity", "setting": "[25]", "result": "inactive"}
    ]}
  ]
}
